From patent publication US20220348876A1, “METABOLISM GUIDES DEFINITIVE LINEAGE SPECIFICATION DURING ENDOTHELIAL TO HEMATOPOIETIC TRANSITION” (Amniotics AB, priority 2019, published 2022)

Tests used:
HE cells [1] = test: confocal imaging: filipin III and histone acetylation staining; assay type: cell-based, human; conditions: day 2, DCA-treated HE cells
Description: For TMRE staining, on day 3 of subculture, half of the culture medium was removed and cells were stained with 20 nM TMRE (Thermo Fisher Scientific, T669) by direct addition into the culture medium of a 2× concentrated solution. After a 20-minute incubation at 37° C., wells were carefully washed with PBS and fresh HE medium was added. During acquisition, cells were kept in a humidified incubator at 37° C., 5% CO2, 20% O2. For immunocytochemistry, subculture day 2 HE cells (plated on coverslips) were washed twice in PBS, fixed with 4% PFA for 15 minutes at RT and washed three times with PBS. For filipin staining, fixed cells were incubated with 100 μg/ml filipin III (Sigma-Aldrich, F4767) for 1 hour, washed three times with PBS and rinsed with distilled water before mounting with PVA/DABCO. […] Intensity quantification was performed using the Fiji software as follows. For TMRE, using the brightfield channel, ROIs were selected for 5 spindle-shaped and 5 round cells (randomly chosen) and average intensity for each ROI was calculated in a summatory Z-stack of the TMRE channel. For filipin and acetylation, the summatory Z-stack for the filipin channel was obtained and average intensity calculated. A total of 2-3 independent experiments with 2-3 replicate wells were quantified. […]

HE cells [2] = test: globin transcript q-PCR in CFU colonies; assay type: cell-based, human; conditions: normalized to KLF1, relative to non-treated
Description: Subcultured HE cells were treated with StemPro Accutase Cell Dissociation Reagent for 2 minutes at 37° C. and dissociated cells were resuspended in 3 ml Methocult H4230 (STEMCELL Technologies, France) (prepared according to manufacturer's instructions, with 20 mL Iscove's Modified Dulbecco's Medium containing 2.5 μg hSCF, 5 μg GM-CSF, 2.5 μg IL-3 and 500 U EPO). Each mixture was divided onto 2 wells of a non-tissue culture treated 6-well plate. Following a 12-day incubation in a humidified incubator at 37° C., 5% CO2, 20% O2, colonies were morphologically distinguished and scored. For globin analysis, colonies in Methocult wells were harvested with PBS, washed thoroughly and frozen in RLT buffer with β-mercaptoethanol. Following RNA extraction and RT (Qiagen), gene expression was assessed with taqman probes by q-PCR. The taqman probes used in this study are HBA1/2 (Hs00361191_g1), HBE1 (Hs00362216_m1), HBG2/1 (Hs00361131_g1) and KLF1 (Hs00610592_m1).

SMILES | increase in cholesterol content (HE cells [1]) | HBA1-2 (adult globin) expression (HE cells [2]) | HBE1 (embryonic) globin transcripts (HE cells [2]) | HBG1-2 (fetal) globin transcripts (HE cells [2])
O=C(O)C(Cl)Cl [DCA, dichloroacetate] | 8% |  |  | 
N#C/C(=C\c1cn(-c2ccccc2)c2ccccc12)C(=O)O [UK5099] |  | did not have an effect | significant increase | significant increase
